In patent US9637488B2, “Heterocyclic compounds as inhibitors of class I PI3KS” (priority 2015, dated 2017):

Experiments:
Format in all cases: biochemical
[1] = target: PI3Kβ (p110β/p85α) (Homo sapiens (Human), UniProt P42338); test: cell-free PI3K HTRF assay, PI3Kβ; details: ratio of IC50 against PI3Kβ related to PI3Kδ; 10-dose, 3-fold serial dilution starting at 10 μM
Procedure: (§1) Exemplary compounds of the invention were tested for inhibitory activity and potency against class I PI3Ks (p110α/p85α, p110β/p85α, p110δ/p85α and p110γ) using a cell-free based PI3K HTRF assay. This assay was used to detect the formation of the product 3,4,5-inositol triphosphate molecule (PIP3) by displacement of biotin-PIP3 from an energy transfer complex consisting of Europium labeled anti-GST monoclonal antibody, a GST-tagged pleckstrin homology (PH) domain, biotinylated PIP3 and Streptavidin-Allophycocyanin (APC). Excitation of Europium in the complex results in an energy transfer to the APC and a fluorescent emission at 665 nm. The PIP3 product formed by human PI 3-Kinase activity displaces biotin-PIP3 from the complex resulting in a loss of energy transfer and thus a decrease in signal.
(§2) Human class I PI3K isoforms were co-expressed in a Baculovirus infected cell expression system. The PI3K isoforms were assayed in the presence of HEPES (50 mM, pH 7.0), NaN3 (0.02%), BSA (0.01%), orthovanadate (0.1 mM), and DMSO (1%). The exemplary compounds dissolved in DMSO were delivered into the kinase reaction mixture by Acoustic technology (Echo550; nanolitter range), and were pre-incubated for 10 min at room temperature before adding ATP (10 μM) to initiate the reaction. After 30 min at 30° C., the reactions were quenched with a stop solution, incubated overnight with a detection mixture before measuring HTRF (Ex: 320 nm; Em: 615/665 nm). The emission ratio is converted into μM PIP3 production based on PIP3 standard curves, and the nonlinear regression to obtain the standard curve and IC50 values are performed using Graphpad Prism software.
(§3) The assays were performed at Reaction Biology Corporation, One Great Valley Parkway, Suite 2, Malvern, Pa. 19355, USA.
(§4) Exemplary compounds of the invention selected were further tested their inhibitory activity or potency against PI3Kα, PI3Kβ, and PI3Kγ in 10-dose IC50 mode with 3-fold serial dilution starting at 10 μM. […] Table 5 below illustrates the selectivity of the exemplary compounds using the ratios of the IC50 values of the compounds against PI3Kα, PI3Kβ, and PI3Kγ related to PI3Kδ. […] Such unexpected selectivity against PI3Kδ and/or PI3Kγ is attributed to the unusual overall shape of the molecules of formula (I) and (II), and the optimal selection of R1, R2, R3, R4, X, and Y defined in formula (I) and (II) in order to bind favorably in the ATP-binding pocket of PI3Kδ and/or PI3Kγ versus other class I isozymes.

[2] = target: PI3Kα (p110α/p85α) (Homo sapiens (Human), UniProt P42336); test: cell-free PI3K HTRF assay, PI3Kα; details: ratio of IC50 against PI3Kα related to PI3Kδ; 10-dose, 3-fold serial dilution starting at 10 μM
Procedure: as §1, §2, §3, §4

[3] = target: PI3Kδ (p110δ/p85α) (Homo sapiens (Human), UniProt O00329); test: cell-free PI3K HTRF assay, PI3Kδ; details: for IC50: 10-dose IC50 mode, 3-fold serial dilution starting at 1 μM, ATP 10 μM, read-out: IC50 value for the inhibition of PI3Kδ; for potency or inhibition against PI3Kδ (in words): qualitative statement
[4] = target: PI3Kγ (p110γ) (Homo sapiens (Human), UniProt P48736); test: cell-free PI3K HTRF assay, PI3Kγ; details: ratio of IC50 against PI3Kγ related to PI3Kδ; 10-dose, 3-fold serial dilution starting at 10 μM
Procedure: as §1, §2, §3, §4

PI3Kα (p110α/p85α), sequence (P42336 whole entry): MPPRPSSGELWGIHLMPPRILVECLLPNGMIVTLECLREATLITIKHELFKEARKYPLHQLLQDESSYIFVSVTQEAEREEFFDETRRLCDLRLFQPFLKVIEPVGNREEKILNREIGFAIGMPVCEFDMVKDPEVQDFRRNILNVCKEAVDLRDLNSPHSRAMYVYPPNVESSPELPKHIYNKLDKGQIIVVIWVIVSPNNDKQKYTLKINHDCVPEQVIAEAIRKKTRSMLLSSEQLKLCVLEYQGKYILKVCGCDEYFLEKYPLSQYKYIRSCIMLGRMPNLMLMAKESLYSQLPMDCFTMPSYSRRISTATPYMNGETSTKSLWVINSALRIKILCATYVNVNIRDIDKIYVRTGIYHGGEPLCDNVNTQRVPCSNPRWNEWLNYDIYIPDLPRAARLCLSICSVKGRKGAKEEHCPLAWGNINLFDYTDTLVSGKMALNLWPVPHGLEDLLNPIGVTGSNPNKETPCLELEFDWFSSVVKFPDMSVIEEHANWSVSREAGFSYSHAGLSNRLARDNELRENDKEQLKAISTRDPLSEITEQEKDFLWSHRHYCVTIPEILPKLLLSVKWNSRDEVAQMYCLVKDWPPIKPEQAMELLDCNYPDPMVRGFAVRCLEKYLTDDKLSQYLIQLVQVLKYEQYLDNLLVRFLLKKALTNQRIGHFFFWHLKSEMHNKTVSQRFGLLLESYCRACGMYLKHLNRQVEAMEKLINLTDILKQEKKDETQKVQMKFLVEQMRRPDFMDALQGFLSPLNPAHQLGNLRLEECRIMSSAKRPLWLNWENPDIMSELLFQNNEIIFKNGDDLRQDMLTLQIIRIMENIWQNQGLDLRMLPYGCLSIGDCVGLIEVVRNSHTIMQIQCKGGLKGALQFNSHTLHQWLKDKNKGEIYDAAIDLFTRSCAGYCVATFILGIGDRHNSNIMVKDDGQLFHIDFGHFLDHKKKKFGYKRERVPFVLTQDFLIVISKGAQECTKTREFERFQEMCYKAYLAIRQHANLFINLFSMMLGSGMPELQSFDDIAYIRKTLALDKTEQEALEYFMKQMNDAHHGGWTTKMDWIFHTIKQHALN
PI3Kα (p110α/p85α), sequence (P27986 whole entry partner): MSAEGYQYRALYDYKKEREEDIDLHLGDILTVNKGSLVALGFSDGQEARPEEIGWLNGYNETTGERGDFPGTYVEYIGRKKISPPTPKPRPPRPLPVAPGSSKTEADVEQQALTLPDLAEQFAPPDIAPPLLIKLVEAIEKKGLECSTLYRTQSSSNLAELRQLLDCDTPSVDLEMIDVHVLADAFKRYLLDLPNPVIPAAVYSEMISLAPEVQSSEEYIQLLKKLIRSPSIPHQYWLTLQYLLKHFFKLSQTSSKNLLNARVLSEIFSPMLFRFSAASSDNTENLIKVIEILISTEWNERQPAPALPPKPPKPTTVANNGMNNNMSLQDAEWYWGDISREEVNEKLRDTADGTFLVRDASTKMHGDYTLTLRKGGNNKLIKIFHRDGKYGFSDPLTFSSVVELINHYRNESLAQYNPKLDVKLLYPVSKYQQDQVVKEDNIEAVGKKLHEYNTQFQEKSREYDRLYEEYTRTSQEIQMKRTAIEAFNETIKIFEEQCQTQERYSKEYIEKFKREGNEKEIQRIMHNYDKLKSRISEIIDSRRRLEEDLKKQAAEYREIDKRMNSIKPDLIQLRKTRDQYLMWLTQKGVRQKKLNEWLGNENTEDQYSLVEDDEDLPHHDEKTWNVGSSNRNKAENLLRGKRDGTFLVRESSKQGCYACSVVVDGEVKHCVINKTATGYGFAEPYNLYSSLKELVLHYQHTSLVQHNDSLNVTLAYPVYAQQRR
PI3Kγ (p110γ), sequence (P48736 whole entry): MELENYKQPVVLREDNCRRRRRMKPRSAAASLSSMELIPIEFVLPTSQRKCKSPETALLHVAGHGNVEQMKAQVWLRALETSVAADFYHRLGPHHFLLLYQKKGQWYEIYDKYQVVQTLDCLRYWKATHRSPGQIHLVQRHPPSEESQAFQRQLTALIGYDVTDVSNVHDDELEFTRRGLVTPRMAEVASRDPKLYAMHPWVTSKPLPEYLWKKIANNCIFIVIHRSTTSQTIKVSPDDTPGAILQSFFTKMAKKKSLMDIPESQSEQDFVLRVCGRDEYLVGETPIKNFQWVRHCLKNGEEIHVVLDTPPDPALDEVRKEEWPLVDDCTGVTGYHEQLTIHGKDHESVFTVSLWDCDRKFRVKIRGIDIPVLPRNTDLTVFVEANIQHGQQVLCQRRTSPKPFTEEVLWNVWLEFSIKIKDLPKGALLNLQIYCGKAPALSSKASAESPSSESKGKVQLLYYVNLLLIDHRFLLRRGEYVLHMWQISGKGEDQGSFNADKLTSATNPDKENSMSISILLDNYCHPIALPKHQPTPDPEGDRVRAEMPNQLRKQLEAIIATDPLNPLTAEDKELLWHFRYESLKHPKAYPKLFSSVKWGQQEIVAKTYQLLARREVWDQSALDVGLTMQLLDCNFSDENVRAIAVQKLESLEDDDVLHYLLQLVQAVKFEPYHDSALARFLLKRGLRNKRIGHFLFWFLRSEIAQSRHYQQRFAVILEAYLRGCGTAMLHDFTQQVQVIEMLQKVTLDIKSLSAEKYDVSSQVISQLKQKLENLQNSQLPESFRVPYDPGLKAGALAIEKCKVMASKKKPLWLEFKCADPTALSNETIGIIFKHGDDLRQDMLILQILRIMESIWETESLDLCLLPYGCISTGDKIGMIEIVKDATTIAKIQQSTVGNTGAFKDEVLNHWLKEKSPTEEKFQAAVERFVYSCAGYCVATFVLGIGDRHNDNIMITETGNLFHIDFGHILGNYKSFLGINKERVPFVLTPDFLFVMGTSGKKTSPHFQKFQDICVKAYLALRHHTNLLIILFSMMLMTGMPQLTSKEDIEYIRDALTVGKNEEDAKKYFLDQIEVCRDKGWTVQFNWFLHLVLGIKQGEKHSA
PI3Kδ (p110δ/p85α), sequence (O00329 whole entry): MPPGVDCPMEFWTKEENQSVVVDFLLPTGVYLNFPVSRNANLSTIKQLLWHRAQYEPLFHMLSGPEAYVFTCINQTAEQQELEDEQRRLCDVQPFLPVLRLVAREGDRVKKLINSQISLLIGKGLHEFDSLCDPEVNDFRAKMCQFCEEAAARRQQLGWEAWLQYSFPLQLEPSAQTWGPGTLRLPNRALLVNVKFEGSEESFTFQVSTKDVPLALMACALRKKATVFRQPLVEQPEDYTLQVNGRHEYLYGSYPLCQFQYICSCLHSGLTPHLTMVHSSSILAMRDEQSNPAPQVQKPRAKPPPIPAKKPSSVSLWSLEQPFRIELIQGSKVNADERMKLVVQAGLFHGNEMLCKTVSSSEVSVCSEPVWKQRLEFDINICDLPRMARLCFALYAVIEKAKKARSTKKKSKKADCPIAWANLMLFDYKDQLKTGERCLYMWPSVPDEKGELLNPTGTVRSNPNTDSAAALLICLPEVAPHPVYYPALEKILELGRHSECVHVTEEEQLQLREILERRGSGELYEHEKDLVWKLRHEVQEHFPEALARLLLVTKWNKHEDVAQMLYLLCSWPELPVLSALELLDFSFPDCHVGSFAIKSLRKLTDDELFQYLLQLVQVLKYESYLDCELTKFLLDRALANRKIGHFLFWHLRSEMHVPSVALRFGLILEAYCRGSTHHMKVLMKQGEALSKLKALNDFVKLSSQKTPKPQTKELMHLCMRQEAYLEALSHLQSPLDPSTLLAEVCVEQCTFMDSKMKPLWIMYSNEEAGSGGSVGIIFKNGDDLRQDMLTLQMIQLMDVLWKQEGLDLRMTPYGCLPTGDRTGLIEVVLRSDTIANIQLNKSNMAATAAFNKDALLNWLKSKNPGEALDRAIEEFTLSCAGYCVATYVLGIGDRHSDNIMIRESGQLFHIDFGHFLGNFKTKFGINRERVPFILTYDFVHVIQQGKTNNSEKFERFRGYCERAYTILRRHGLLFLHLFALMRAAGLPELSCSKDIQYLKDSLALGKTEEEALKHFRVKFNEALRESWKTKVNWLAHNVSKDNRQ
PI3Kδ (p110δ/p85α), sequence (P27986 whole entry partner): as the sequence (P27986 whole entry partner) above
PI3Kβ (p110β/p85α), sequence (P42338 whole entry): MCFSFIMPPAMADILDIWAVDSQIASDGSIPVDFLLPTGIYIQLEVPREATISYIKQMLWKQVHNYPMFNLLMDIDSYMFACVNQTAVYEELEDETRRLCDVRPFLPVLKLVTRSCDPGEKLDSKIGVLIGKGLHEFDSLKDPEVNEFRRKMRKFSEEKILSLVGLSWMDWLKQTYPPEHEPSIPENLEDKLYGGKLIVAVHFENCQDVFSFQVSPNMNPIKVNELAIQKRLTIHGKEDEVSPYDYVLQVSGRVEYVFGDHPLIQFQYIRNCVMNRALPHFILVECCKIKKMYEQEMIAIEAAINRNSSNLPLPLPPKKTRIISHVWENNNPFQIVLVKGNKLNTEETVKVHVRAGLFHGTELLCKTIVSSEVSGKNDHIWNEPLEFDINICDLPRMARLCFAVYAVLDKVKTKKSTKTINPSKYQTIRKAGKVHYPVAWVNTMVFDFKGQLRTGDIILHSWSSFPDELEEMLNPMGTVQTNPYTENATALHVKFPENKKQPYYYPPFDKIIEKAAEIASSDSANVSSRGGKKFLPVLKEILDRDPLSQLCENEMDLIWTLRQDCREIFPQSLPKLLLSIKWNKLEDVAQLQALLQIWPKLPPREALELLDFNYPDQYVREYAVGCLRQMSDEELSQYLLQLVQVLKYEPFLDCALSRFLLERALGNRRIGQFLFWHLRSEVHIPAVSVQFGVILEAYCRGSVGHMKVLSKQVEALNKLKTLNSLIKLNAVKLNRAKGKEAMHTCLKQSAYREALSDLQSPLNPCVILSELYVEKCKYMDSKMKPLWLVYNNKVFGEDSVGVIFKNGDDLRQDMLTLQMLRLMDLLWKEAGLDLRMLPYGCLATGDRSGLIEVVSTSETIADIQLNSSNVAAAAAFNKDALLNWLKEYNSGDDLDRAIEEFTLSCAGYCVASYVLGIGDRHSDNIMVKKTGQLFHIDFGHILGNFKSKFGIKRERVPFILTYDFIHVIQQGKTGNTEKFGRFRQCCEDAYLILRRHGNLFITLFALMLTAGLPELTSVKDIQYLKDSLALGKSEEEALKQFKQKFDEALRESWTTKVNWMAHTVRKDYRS
PI3Kβ (p110β/p85α), sequence (P27986 whole entry partner): as the sequence (P27986 whole entry partner) above

Structure (SMILES) | Ratio (β/δ) [1] | Ratio (α/δ) [2] | IC50 [3] [nM] | Ratio (γ/δ) [4] | potency or inhibition against PI3Kδ (in words) [3]
COc1cccc(-c2nc3cc(F)ccc3cc2C2CCCN2c2ncnc(N)c2C#N)c1 (stereo not drawn) [Compound 30] | 631 | 962 | 4.8 | 85 | –
Fc1ccc2cc(C3CCCN3c3ncnc4[nH]cnc34)c(-c3ccccn3)nc2c1 (stereo not drawn) [Compound 10, 3-(1-(9H-purin-6-yl)pyrrolidin-2-yl)-7-fluoro-2-(pyridin-2-yl)quinoline] | 519 | >781 | 13 | 53 | –
N#Cc1c(N)ncnc1N1CCC[C@H]1c1cc2cccc(Cl)c2nc1-c1ccccc1 [Compound 67] | 1368 | >8583 | < 0.05 | >5.6 | –
Fc1ccc2cc(C3CCCN3c3ncnc4[nH]cnc34)c(N3CCCCC3)nc2c1 (stereo not drawn) [Compound 16] | 1153 | 3360 | 2.2 | 145 | –
N#Cc1c(N)ncnc1N1CCC[C@H]1c1cc2cccc(Cl)c2nc1N1CCOCC1 [Compound 69] | >111 | >4154 | < 0.05 | >31 | –
Cc1cccc2cc([C@@H]3CCCN3c3nc(N)nc(N)c3C#N)c(-c3ccccc3)nc12 [Compound 54, (S)-2,4-diamino-6-(2-(8-methyl-2-phenylquinolin-3-yl)pyrrolidin-1-yl)pyrimidine-5-carbonitrile] | >1120 | >1801 | < 0.05 | ~10 | –
Fc1ccc2cc([C@@H]3CCCN3c3ncnc4[nH]cnc34)c(-c3ccccn3)nc2c1 [Compound 62] | 520 | >781 | 12.8 | 53 | –
Fc1ccc2cc(C3CCCN3c3ncnc4[nH]cnc34)c(-c3ccccc3)nc2c1 (stereo not drawn) [Compound 21] | 3550 | 12818 | 0.7 | 67.5 | –
N#Cc1c(N)ncnc1N1CCCC1c1cc2ccc(F)cc2nc1N1CCOCC1 (stereo not drawn) [Compound 7, 4-amino-6-(2-(7-fluoro-2-morpholinoquinolin-3-yl)pyrrolidin-1-yl)pyrimidine-5-carbonitrile] | 344 | 1000 | 1.6 | 111 | –
Fc1ccc2cc(C3CCCCCN3c3ncnc4[nH]cnc34)c(-c3ccccc3)nc2c1 (stereo not drawn) [Compound 45, 3-(1-(9H-purin-6-yl)azepan-2-yl)-7-fluoro-2-phenylquinoline] | – | – | > 1000 | – | week potency or inhibition
N#Cc1c(N)ncnc1N1CC=CCC1c1cc2ccc(F)cc2nc1N1CCOCC1 (stereo not drawn) [Compound 44] | 297 | – | 6.2 | 152 | –
Fc1ccc2cc(C3CC=CCN3c3ncnc4[nH]cnc34)c(-c3ccccc3)nc2c1 (stereo not drawn) [Compound 31, 3-(1-(9H-purin-6-yl)-1,2,3,6-tetrahydropyridin-2-yl)-7-fluoro-2-phenylquinoline] | >97 | – | 103 | 16 | –
Fc1ccc2cc(C3CCCCN3c3ncnc4[nH]cnc34)c(-c3ccccc3)nc2c1 (stereo not drawn) [Compound 41] | – | – | 240 | – | –
Nc1cc(N2CCCC2c2cc3ccc(F)cc3nc2-c2ccccc2)nc(N)n1 (stereo not drawn) [Compound 28] | – | – | > 1000 | – | –
Fc1ccc2cc(C3CCCN3c3ncnc4[nH]cnc34)c(-c3cccnc3)nc2c1 (stereo not drawn) [Compound 1, 3-(1-(9H-purin-6-yl)pyrrolidin-2-yl)-7-fluoro-2-(pyridin-3-yl)quinoline] | 267 | – | 27 | 39 | –
Cn1c(=O)n(C)c2c(N3CCCC3c3cc4ccc(F)cc4nc3-c3ccccn3)ncnc21 (stereo not drawn) [Compound 13] | – | – | > 1000 | – | week potency or inhibition
N#Cc1c(N)ncnc1N1CC=CCC1c1cc2ccc(F)cc2nc1-c1ccccc1 (stereo not drawn) [Compound 42] | >181 | – | 55 | 103 | –
